Results from US8871755B2, “Alkene azetidine derivatives as sphingosine 1-phosphate (S1P) receptor modulators” (Allergan, Inc., priority 2013, dated 2014).

Biological target: T1, human S1P1 receptor (Homo sapiens, UniProt P21453)
T1 construct: expressed in transfected cells; membranes were used
Assay: GTP γ35S binding assay for S1P1 activity
Assay type: biochemical
Conditions: activity potency from GTP γ35S binding; membranes of cells stably expressing the S1P1 receptor; 30 min at 25° C.
Method: Compounds were synthesized and tested for S1P1 activity using the GTP γ^35S binding assay. These compounds may be assessed for their ability to activate or block activation of the human S1P1 receptor in cells stably expressing the S1P1 receptor. […] binding was measured in the medium containing (mM) HEPES 25, pH 7.4, MgCl2 10, NaCl 100, dithitothreitol 0.5, digitonin 0.003%, 0.2 nM GTP γ^35S, and 5 μg membrane protein in a volume of 150 μl. Test compounds were included in the concentration range from 0.08 to 5,000 nM unless indicated otherwise. Membranes were incubated with 100 μM 5′-adenylylimmidodiphosphate for 30 min, and subsequently with 10 μM GDP for 10 min on ice. Drug solutions and membrane were mixed, and then reactions were initiated by adding GTP γ^35S and continued for 30 min at 25° C. Reaction mixtures were filtered over Whatman GF/B filters under vacuum, and washed three times with 3 mL of ice-cold buffer (HEPES 25, pH7.4, MgCl2 10 and NaCl 100). Filters were dried and mixed with scintillant, and counted for ^35S activity using a […]. Agonist-induced GTP γ^35S binding was obtained by subtracting that in the absence of agonist. Binding data were analyzed using a non-linear regression method. In case of antagonist assay, the reaction mixture contained 10 nM S1P in the presence of test antagonist at concentrations ranging from 0.08 to 5000 nM.

T1 sequence (P21453 whole entry): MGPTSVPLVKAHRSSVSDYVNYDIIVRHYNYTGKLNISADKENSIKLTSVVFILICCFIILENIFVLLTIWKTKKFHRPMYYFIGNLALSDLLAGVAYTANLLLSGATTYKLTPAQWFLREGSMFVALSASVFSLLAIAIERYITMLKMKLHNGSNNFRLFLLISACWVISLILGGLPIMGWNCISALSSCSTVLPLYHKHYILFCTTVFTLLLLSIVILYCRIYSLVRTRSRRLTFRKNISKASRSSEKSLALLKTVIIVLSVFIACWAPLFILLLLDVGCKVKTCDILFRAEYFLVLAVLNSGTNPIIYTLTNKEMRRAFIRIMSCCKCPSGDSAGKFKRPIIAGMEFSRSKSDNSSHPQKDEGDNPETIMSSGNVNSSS

Structure (SMILES) | EC50
Cc1ccc(/C=C(\CCCOc2ccc(CN3CC(C(=O)O)C3)cc2)c2cccc(F)c2F)cc1C [Compound 1, 1-(4-{[(4E)-4-(2,3-Difluorophenyl)-5-(3,4-dimethylphenyl)pent-4-en-1-yl]oxy}benzyl)azetidine-3-carboxylic acid] | 480 nM
Cc1ccc(/C=C(\CCCCSc2ccc(CN3CC(C(=O)O)C3)cc2)c2cc(F)cc(F)c2)cc1C [Compound 4, 1-(4-{[(5E)-5-(3,5-difluorophenyl)-6-(3,4-dimethylphenyl)hex-5-en-1-yl]sulfanyl}benzyl)azetidine-3-carboxylic acid] | 652 nM
Cc1ccc(/C=C(\CCC[S+]([O-])c2ccc(CN3CC(C(=O)O)C3)cc2)c2cc(F)cc(F)c2)cc1C (stereo not drawn) [Compound 7] | 158 nM

Stronger by EC50, values ahead:

EC50 | Structure (SMILES)
36 nM | Cc1ccc(C=C(CCCOc2ccc(CN3CC(C(=O)O)C3)cc2)c2ccsc2)cc1C [1-(4-{[5-(3,4-dimethylphenyl)-4-(3-thienyl)pent-4-en-1-yl]oxy}benzyl)azetidine-3-carboxylic acid]
27.9 nM | Cc1ccc(/C=C(\CCCOc2ccc(CN3CC(C(=O)O)C3)cc2)c2cccc(Cl)c2)cc1C [Compound 5, 1-(4-{[(4E)-4-(3-Chlorophenyl)-5-(3,4-dimethylphenyl)pent-4-en-1-yl]oxy}benzyl)azetidine-3-carboxylic acid]
4.21 nM | Cc1ccc(/C=C(\CCCOc2ccc(CN3CC(C(=O)O)C3)cc2)c2cc(F)cc(F)c2)cc1C [Compound 6, 1-(4-{[(4E)-4-(3,5-Difluorophenyl)-5-(3,4-dimethylphenyl)pent-4-en-1-yl]oxy}benzyl)azetidine-3-carboxylic acid]
